# Experimental data as given in US5457104A, “Quinolone- and naphthyridonecarboxylic acid derivatives” (Bayer Aktiengesellschaft, priority 1993, dated 1995).
# What was measured:
# Assay in all cases: MIC, serial dilution test on Iso-sensitest agar
# Assay type in all cases: cell-based
# [1] = system: Staphylococcus aureus 25768; conditions: 37° C., approx. 20 hours, approx. 10^4 CFU per inoculation point
# Protocol: (§1) The minimum inhibitory concentrations (MIC) were determined by the serial dilution test on Iso-sensitest agar (Oxoid). For each test substance, a series of agar plates was prepared which contained concentrations of the active substance which decreased at a rate of in each case twice the dilution factor. The agar plates were inoculated using a multipoint inoculator (Denley). For inoculation, overnight cultures of the pathogens were used which had previously been diluted in such a manner that each inoculation point contained approximately 10^4 colony-forming units. The inoculated agar plates were incubated at 37° C., and the microbial growth was observed after approx. 20 hours. The MIC value (μg/ml) indicates the lowest active compound concentration at which no growth could be detected by the naked eye.
# Providencia sp. 12052 = conditions: 37° C., approx. 20 hours, approx. 10^4 CFU per inoculation point
# Protocol: as §1
# [2] = system: Staphylococcus aureus 133; conditions: 37° C., approx. 20 hours, approx. 10^4 CFU per inoculation point
# Protocol: as §1
# [3] = system: Klebsiella pneumoniae 8085; conditions: 37° C., approx. 20 hours, approx. 10^4 CFU per inoculation point
# Protocol: as §1
# [4] = system: Enterococcus faecalis 27101; conditions: 37° C., approx. 20 hours, approx. 10^4 CFU per inoculation point
# Protocol: as §1
# [5] = system: Staphylococcus aureus 1756; conditions: 37° C., approx. 20 hours, approx. 10^4 CFU per inoculation point
# Protocol: as §1
# Providencia sp. 12012 = conditions: 37° C., approx. 20 hours, approx. 10^4 CFU per inoculation point
# Protocol: as §1
# E. coli 455/7 = conditions: Escherichia coli, 37° C., approx. 20 hours, approx. 10^4 CFU per inoculation point
# Protocol: as §1
# [6] = system: Staphylococcus aureus ICB 25701; conditions: ICB25701, 37° C., approx. 20 hours, approx. 10^4 CFU per inoculation point
# Protocol: as §1
# Klebsiella pneumoniae 63 = conditions: 37° C., approx. 20 hours, approx. 10^4 CFU per inoculation point
# Protocol: as §1
# [7] = system: Acinetobacter caloaceticus 14068; conditions: 37° C., approx. 20 hours, approx. 10^4 CFU per inoculation point
# Protocol: as §1
# E. coli Neumann = conditions: Escherichia coli, 37° C., approx. 20 hours, approx. 10^4 CFU per inoculation point
# Protocol: as §1
# [8] = system: Enterococcus faecalis 9790; conditions: 37° C., approx. 20 hours, approx. 10^4 CFU per inoculation point
# Protocol: as §1
# Mirococcus luteus 9341 = conditions: 37° C., approx. 20 hours, approx. 10^4 CFU per inoculation point
# Protocol: as §1
MIC [1] [µg/mL],MIC (Providencia sp. 12052) [µg/mL],MIC [2] [µg/mL],MIC [3] [µg/mL],MIC [4] [µg/mL],MIC [5] [µg/mL],MIC (Providencia sp. 12012) [µg/mL],MIC (E. coli 455/7) [µg/mL],MIC [6] [µg/mL],MIC (Klebsiella pneumoniae 63) [µg/mL],MIC [7] [µg/mL],MIC (E. coli Neumann) [µg/mL],MIC [8] [µg/mL],MIC (Mirococcus luteus 9341) [µg/mL],Structure (SMILES)
4,1,0.03,0.03,0.06,0.015,0.06,1,0.25,0.03,0.06,0.03,0.06,0.06,NC1C=CCC2CN(c3ccc4c(=O)c(C(=O)O)cn(C5CC5)c4c3F)CC12 (stereo not shown) [Example 20]
16,2,0.125,0.062,0.25,0.125,0.06,1,4,0.062,0.25,0.031,0.25,0.5,"NC1CCN(c2ccc3c(=O)c(C(=O)O)cn(C4CC4)c3c2F)C1 (stereo not shown) [Reference, 7-(3-aminopyrrolidin-1-yl)-1-cyclopropyl-8-fluoro-1,4-dihydro-4-oxo-3-quinolinecarboxylic acid, reference compound]"
2,1,0.0039,0.015,0.015,0.0039,0.015,0.5,0.06,0.015,0.015,0.0078,0.03,0.03,NC1C=CCC2CN(c3ccc4c(=O)c(C(=O)O)cn(C5CC5)c4c3Cl)CC12 (stereo not shown) [Example 7]
2,1,0.015,0.3,0.06,0.015,0.06,0.5,0.25,0.3,0.03,0.015,0.06,0.125,CC1C=CC(N)C2CN(c3ccc4c(=O)c(C(=O)O)cn(C5CC5)c4c3F)CC12 (stereo not shown) [Example 21]
2,1,0.0078,0.03,0.06,0.0078,0.06,0.5,0.06,0.03,0.03,0.015,0.06,0.06,CC1C=CC(N)C2CN(c3ccc4c(=O)c(C(=O)O)cn(C5CC5)c4c3Cl)CC12 (stereo not shown) [Example 8]
